{"source": "patent US6359015B1", "about": "“Method for antagonizing inhibition effects of alcohol on cell adhesion” (The United States of America as represented by the …, priority 2000, dated 2002)", "key": {"[1]": {"test_system": "BMP-7 treated NG108-15 neuroblastoma×glioma cells", "experiment": "Cell-cell adhesion (short-term aggregation) assay in BMP-7 treated NG108-15 cells", "type": "cell-based, rat and mouse", "conditions": "for Inhibition of cell-cell adhesion (in words): both cellular systems (NG108-15 + BMP-7 and L1-expressing NIH/3T3)", "method": "NIH/3T3 cells were cultured in Dulbecco's minimum Eagle medium (DMEM) (Life Technologies, Gaithersburg, Md.) supplemented with 10% normal calf serum (Intergen, Purchase, N.Y.) and 400 μg/ml G418 (Life Technologies). NG108-15 neuroblastoma×glioma cells (passages 21 to 30) were plated in serum-free, defined medium (Reference 16). At the start of the morphogenetic and cell adhesion assays, serum-free medium containing BMP-7 (Creative BioMolecules, Hopkinton, Ma.) (1-40 ng/ml, final) was added daily to the NG108-15 cells. Both cell lines were cultured at 37° C., in an atmosphere of 90% air and 10% CO2. Three NIH/3T3 subclones were utilized in these studies: 2B2-L1, 2A2-L1 and Vec-1A5. The 2B2-L1 and 2A2-L1 cell lines are subclones derived from a stable transfection of NIH/3T3 cells with the human L1 cDNA, and Vec-1A5 is a subclone from a transfection with the empty expression vector (Reference 12).\nCells were cultured and cell adhesion assays were performed in the absence and presence of the alcohols listed below in Table 1. The concentrations of alcohols used in the adhesion assays were calculated to produce membrane concentrations equivalent to 50-100 mM ethanol. Membrane/buffer partition coefficients (Pm/b) were obtained or were calculated from published octanol/water partition coefficients (Reference 15). Molar volumes were obtained from published sources (References 15) or were calculated from molecular weights and densities at 20° C.\n(§1) Cell-cell adhesion was measured using a modified short-term aggregation assay of sub-confluent cells (Reference 12). Cells were detached by gentle agitation, mechanically dissociated to obtain a single-cell suspension, and diluted in PBS supplemented with 0.1 mg/ml DNase to 350,000 cells/ml for the NIH/3T3 cells, and 250,000 cells/ml for the NG108-15 cells. One ml of the cell suspension was added per well (4.5 cm^2) of a 12-well plate. After addition of the alcohols, the cells were gently mixed and mechanically shaken for 30 minutes at room temperature on an orbital shaker set at 60 to 80 rpm. Cells were viewed at a final magnification of 200×, and each well was scored for single and adherent cells in five or six microscopic fields of view. We counted approximately 100 cells per field of view and 600 cells per well. The percentage of adherent cells was calculated for each microscopic field of view and averaged. To calculate the magnitude of ethanol inhibition, we subtracted the values for cell adhesion with the Vec-1A5 cells from those of the 2B2-L1 or 2A2-L1 cell lines. Similarly, the values for cell adhesion in NG108-15 cells cultured in serum-free medium were subtracted from those of NG108-15 cells treated with BMP-7.\nWe tested the effects of a series of alcohols on cell-cell adhesion in two well-characterized model systems. NG108-15 cells were incubated for 48 hours in a serum-free medium supplemented with 10-20 ng/ml BMP-7 to induce L1 and N-CAM gene expression (Reference 10). Parallel experiments were performed using two ethanol-sensitive NIH/3T3 cell lines transfected with human L1 (2B2-L1 and 2A2-L1) (Reference 12) and a NIH/3T3 cell line transfected with the empty expression vector (1A5-V)."}, "[2]": {"test_system": "insect SF9 cells transfected with L1", "conditions": "References 14 and 21; cited from earlier work"}, "NG108-15 cells": {"test_system": "NG108-15 cells", "experiment": "BMP-7 morphogenesis (cell clusters) in NG108-15 cells", "type": "cell-based, rat and mouse", "conditions": "for Antagonism of ethanol inhibition of BMP-7 morphogenesis: 50 mM ethanol and 0.05 mM 1-octanol", "method": "NG108-15 cells were plated from suspensions of single cells at a density of 50,000 cells/well in poly-D-lysine-coated, 6-well plated containing serum-free medium in the absence or presence of BMP-7, as described (References 17-18). […] Control cultures were treated similarly. The media for all cells was replaced daily following the addition of ethanol. […] A cell cluster was defined as a group of three or more cells that adhered to each other along at least one quarter of their cell bodies (Reference 19). The percentage of cells in clusters was calculated by dividing the number of cells present in clusters by the total number of cells (150 to 200) in each field. Values obtained for each field of a treatment group were then averaged.\nTreatment with BMP-7 for 48 hours causes NG108-15 cells to grow in clusters of adherent cells (BMP-7 morphogenesis), rather than as predominantly single cells.\nThe percentage of cells in clusters of three or more cells was scored from two separate fields viewed under 200×magnification."}, "[3]": {"test_system": "Myeloma cells transfected with L1", "conditions": "References 14 and 21; cited from earlier work"}, "[4]": {"conditions": "published or calculated from molecular weight and density at 20° C.; cited from earlier work"}, "[5]": {"test_system": "NIH/3T3-L1 (2B2-L1) cells", "experiment": "Antagonism of 1-butanol inhibition of cell adhesion in NIH/3T3-L1 (2B2-L1) cells", "type": "cell-based, rat", "method": "as §1, with “BMP-7. […]” for “BMP-7.”"}, "GIRK ¼ potassium channel": {"biological_target": "T1, GIRK ¼ potassium channel (Homo sapiens, UniProt P48544+P48549)", "T1 sequence (P48549 1-501)": "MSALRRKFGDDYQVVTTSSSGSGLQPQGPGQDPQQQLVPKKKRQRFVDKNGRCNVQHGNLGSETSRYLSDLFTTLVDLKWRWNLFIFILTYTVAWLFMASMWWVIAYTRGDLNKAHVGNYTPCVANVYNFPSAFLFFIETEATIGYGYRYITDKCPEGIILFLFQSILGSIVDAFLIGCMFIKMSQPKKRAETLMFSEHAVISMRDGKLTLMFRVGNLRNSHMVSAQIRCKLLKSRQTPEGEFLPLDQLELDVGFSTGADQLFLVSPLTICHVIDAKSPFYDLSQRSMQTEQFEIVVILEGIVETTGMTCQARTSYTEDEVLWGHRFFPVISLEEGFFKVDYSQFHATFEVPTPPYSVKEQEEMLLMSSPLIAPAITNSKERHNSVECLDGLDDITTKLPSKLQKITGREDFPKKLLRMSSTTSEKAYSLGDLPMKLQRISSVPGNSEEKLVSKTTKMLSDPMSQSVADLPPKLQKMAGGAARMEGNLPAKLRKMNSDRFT", "T1 sequence (P48544 1-419)": "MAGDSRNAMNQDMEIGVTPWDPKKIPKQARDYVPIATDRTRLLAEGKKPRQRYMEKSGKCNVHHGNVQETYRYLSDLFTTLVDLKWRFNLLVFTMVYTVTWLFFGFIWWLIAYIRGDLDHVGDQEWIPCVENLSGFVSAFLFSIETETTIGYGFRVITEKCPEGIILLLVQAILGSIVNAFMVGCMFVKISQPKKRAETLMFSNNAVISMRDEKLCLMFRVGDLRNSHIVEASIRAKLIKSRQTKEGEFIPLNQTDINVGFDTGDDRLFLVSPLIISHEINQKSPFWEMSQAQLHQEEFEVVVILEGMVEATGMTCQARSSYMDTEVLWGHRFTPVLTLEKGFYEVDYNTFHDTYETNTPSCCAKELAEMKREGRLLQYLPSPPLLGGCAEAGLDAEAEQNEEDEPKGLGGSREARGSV", "conditions": "Reference 20; cited from earlier work"}, "[6]": {"conditions": "from published source or octanol/water partition coefficient divided by 5; cited from earlier work"}, "[7]": {"test_system": "BMP-7 treated NG108-15 cells", "experiment": "Antagonism of short-chain alcohol inhibition of cell adhesion in BMP-7 treated NG108-15 cells", "type": "cell-based, rat and mouse", "method": "as §1"}}, "note": "Entries after “also recorded” stand apart in the source; their conditions may differ. Where two headings read alike, the source gives them in different places."}
{"molecule": "CCO", "note": "[ethanol]", "values": [{"measurement": "Inhibition of cell-cell adhesion (in words)", "setting": "[1]", "result": "maximally inhibited"}, {"measurement": "Sensitivity of L1-transfected insect SF9 cells to ethanol", "setting": "[2]", "result": "insensitive"}, {"measurement": "Inhibition of BMP-7 morphogenesis (percentage of cell clusters)", "setting": "NG108-15 cells; 50 mM ethanol, 3 days, 0.1-40 ng/ml BMP-7", "result": "inhibited significantly"}, {"measurement": "Sensitivity of L1-transfected myeloma cells to ethanol", "setting": "[3]", "result": "insensitive"}, {"measurement": "Vm molar volume", "setting": "[4]", "result": 58, "unit": "mL/mol"}]}
{"molecule": "1-butanol", "values": [{"measurement": "Inhibition of cell-cell adhesion (in words)", "setting": "[1]", "result": "maximally inhibited"}, {"measurement": "1-butanol inhibition of cell-cell adhesion, control", "setting": "[5]; 2B2L1 cells, no 1-octanol pretreatment, washed", "result": "43.6±3.0", "unit": "%"}]}
{"molecule": "CCCCCCCCO", "note": "[1-octanol]", "values": [{"measurement": "Inhibition of cell-cell adhesion (in words)", "setting": "[1]", "result": "not inhibited"}, {"measurement": "Inhibition of cell-cell adhesion at higher concentrations (in words)", "setting": "[1]; concentrations 5-10 fold higher than those reported in Table 1", "result": "inactivity"}, {"measurement": "Antagonism of ethanol enhancement of GIRK ¼ potassium channel activity", "setting": "GIRK ¼ potassium channel", "result": "did not antagonize"}, {"measurement": "P(m/b) membrane/buffer partition coefficient", "setting": "[6]", "result": 189}, {"measurement": "Antagonism of ethanol inhibition of BMP-7 morphogenesis", "setting": "NG108-15 cells; 3 days", "result": "antagonized"}, {"measurement": "Antagonism of ethanol inhibition of BMP-7 morphogenesis", "setting": "NG108-15 cells; 3 days, listed as Octanol", "result": "completely abolished"}, {"measurement": "Mechanism of antagonism of 1-butanol inhibition (in words)", "setting": "[5]; 1-octanol 5 and 50 μM, 2B2-L1 cells", "result": "complete, reversible, and non-competitive; also recorded: reduced the maximal effectiveness"}, {"measurement": "Antagonism of inhibition of cell-cell adhesion by 1-butanol (in words)", "setting": "[7]; 2 mM 1-butanol, BMP-7 treated NG108-15 cells", "result": "completely abolished"}, {"measurement": "Antagonism of the effects of 3-methyl-1-butanol on cell adhesion (in words)", "setting": "[7]; 3 mM 3-methyl-1-butanol", "result": "abolished"}, {"measurement": "Antagonism of the effects of ethanol on cell adhesion (in words)", "setting": "[7]; 100 mM ethanol", "result": "abolished"}, {"measurement": "IC50", "setting": "[7]; NG108-15, read-out: IC50 for antagonism of 1-butanol (and ethanol) inhibition of cell-cell adhesion", "result": 3.6, "unit": "µM"}, {"measurement": "IC50", "setting": "[7]; NG108-15, read-out: IC50 for antagonism of 1-butanol inhibition of cell-cell adhesion", "result": 3.6, "unit": "µM"}, {"measurement": "Potency of antagonism relative to 1-pentanol", "setting": "[7]; ratio of IC50 values", "result": "approximately 200 times"}, {"measurement": "Vm molar volume", "setting": "[4]", "result": 158, "unit": "mL/mol"}]}
{"molecule": "BMP-7: growth factor that induces expression of L1 in neural cells (protein, UniProt P18075 293-431, looked up) Bone morphogenetic protein 7: STGSKQRSQNRSKTPKNQEALRMANVAENSSSDQRQACKKHELYVSFRDLGWQDWIIAPEGYAAYYCEGECAFPLNSYMNATNHAIVQTLVHFINPETVPKPCCAPTQLNAISVLYFDDSSNVILKKYRNMVVRACGCH", "values": [{"measurement": "Percentage of adherent NG108-15 cells", "setting": "[1]; 48 hours, 10-20 ng/ml BMP-7, control 17.0±[…]", "result": "50.0±1.4", "unit": "%"}, {"measurement": "Percentage of cell clusters", "setting": "NG108-15 cells; 0.1-40 ng/ml BMP-7, 3 days", "result": "dose-dependent increase"}]}
